In US10213425B2, “Role of N-2-hydroxy-ethyl-piperazine-N′-2-ethane sulfonic acid (HEPES) in pain control and reversal of demyelinization injury” (Bespoke Bioscience, LLC, priority 2009, dated 2019):

Key:
[1] = tested on: Pediatric Autoimmune Neurological Disease Associated with Strep (PANDAS); test: Clinical case, Pediatric Autoimmune Neurological Disease Associated with Strep (PANDAS) (Example 7); assay type: in vivo, human; settings: for frequency of athetotic movements: intravenous
Cancer of the Pancreas = test: Clinical case, cancer of the pancreas with metastases: analgesic and anti-tumor activity (Example 6); assay type: in vivo, human
Method: The pain was not relieved by passing bowel movements or any other maneuver. They were seen by their personal physician, who diagnosed Type II diabetes mellitus. They were placed on anti-diabetic medication and diet. No additional studies related to the abdominal pain were carried out, even though they were peculiar in a patient with diabetes. Their diabetic state was under satisfactory control with a few weeks, but the abdominal pain problem persisted.
The abdominal pains increased in intensity with new severe pains in the mid-dorsal thoracic spine. […] They underwent radiation treatments for the thoracic lesions which eased, to a limited extent, the pain in this area.
In consultation with the patient ombudsmen group at M. D. Anderson Hospital in Houston, Tex., the family was told that none of the current study protocols were appropriate for their current condition of cancer of the pancreas with wide-spread metastases and such advanced disease. They were given 2-4 months to live. It was recommended that they be treated with pain protocols by the local institutions in the Dallas-Fort Worth area. They were treated by their personal physician who placed them on opiate analgesics for pain control.
In February, 2006, their personal physician contacted the present inventors concerning the possible addition of HEPES as they were receiving the maximal level of opiate medication, which was not controlling the pain the patient was experiencing. In March, 2006, they were placed on a daily dosage of the product administered by intravenous infusion, while continuing their maximum opiate analgesic medication.
In July, 2006, they developed significant anorexia, probably secondary to the increasing levels of endogenous TNF-alpha (cachectic factor). Dronabinol was recommended, but refused by the patient owing to the medication being derived from marijuana. Thereafter, natural source inhibitors of cachectic factor (Table 2) were recommended, but the patient refused to take any of these as they felt these might interfere with the pain control, which was acceptable. They were then offered parenteral nutritional support, which they declined.
From mid-November, 2006, […] developed weakness associated with continued weight loss, and from late November became bed-ridden. […] 2006. While the death certificate lists the cause of death as cancer of the pancreas, in truth the cause of death was terminal anorexia, inanition, and malnutrition, with more than 65 pound weigh loss.

Multiple Sclerosis = test: Clinical case, Multiple Sclerosis patient (Example 1); assay type: in vivo, human; settings: MS patient
Excerpt: patient four is a public elementary school teacher, who was diagnosed with MS when they were […].
Mentally, they often experienced periods of lack of concentration and follow-through of immediate projects, generalized muscular stiffness and lack of fine motor coordination with episodes of lurching gait and imbalance. Very bothersome was their manual discoordination which adversely influenced their writing on the chalk board. Indeed, the symptoms were so frequent that their teaching contract was not renewed. They subsequently obtained employment at an academically excellent small Episcopal school where the classes were small and the stress level was considerably less compared with the public school system.
Despite these changes of venue, they had more frequent exacerbations and remissions and experienced multiple medication programs with their very concerned neurologist physician. They continued to use block letters on the blackboard rather than cursive black-board writing as a form of communicating with their students.
After a particularly severe episode of problems, they completely lost the ability to write (e.g., writing a payment check) owing to the loss of manual sensory function and erratic motor movements. The present inventors were asked to see them by the school administrator, who served as their friend and confidant. […]

[2] = General clinical administration of HEPES: effective dosage and tolerability; assay type: in vivo, human
Method: The product, HEPES, is produced in ultra-pure form and is available from GIBCOL Technologies, Inc. The product is administered on a body weight basis with the determined minimal effective daily dosage of 70-75 mg/kg. The material may be safely given either by oral or parenteral routes. […] The administered product is prepared by a compounding pharmacist, with the dosage of each patient recipient being individualized.

[3] = tested on: cell cultures of both animal and human origin; settings: studies not specified; cited from earlier work
Parkinson's Disease = test: Clinical cases, Parkinson's Disease patients (Examples 4 and 5); assay type: in vivo, human
Excerpt: […] The family history is positive. They have been tried on a variety of Parkinsonian medications, the beneficial actions of which seem to disappear within a few months.
The hand tremor was present only to a small degree, but the head tremors and tics were very prominent to the degree that […] would become nauseated if […] kept […] vision pinpointed.
patient one is a person who has had Parkinsonian symptoms since they were […]. They were placed on levo-dopa with gradual increases to six per day along with large doses of Mirapex and polyethylene glycol for their problem with constipation. Their constipation was really quite intractable with abdominal distention and protrusion, nausea and vomiting. Also very worrisome was their diminished deglutitionary activity and tongue biting with oral bleeding. They were unable to stand without assistance and their hesitant walk favored the festinative aspects. […] Over time the daily dosage of levodopa was reduced from the prescribed 6 per day to 2 per day to which a small dose of the dopamine agonist, bromocriptine, was added with singularly beneficial results. Their condition improved to the extent that they were again able to drive themself to the store, buy gasoline, and eat out. Most, most gratifying, indeed!
They were placed on an active bowel treatment program with good results which, when required was supplemented with an enema q.o.d. They continued to be monitored closely.

[4] = tested on: Chronic Inflammatory Demyelinating Polyradiculoneuropathy (CIDP); test: Clinical case, Chronic Inflammatory Demyelinating Polyradiculoneuropathy (Example 9); assay type: in vivo, human; settings: daily oral product, after three weeks
Excerpt: patient three is a person who presents with a history of multiple allergies, infections (including viral meningitis/aseptic encephalitis), multiple episodes of antibiotic treatments, etc. They describe their physical status historically as follows: “I have been seriously ill since 1991 with progressive neurologic deficits, which culminated with significant loss of motor control in 1993. The condition was misdiagnosed as Multiple Sclerosis with negative findings on Mill.” They initially ambulated slowly with the use of a cane. In 1994 they were paralyzed from the neck down. They were treated with Ig intravenously and recovered over a period of weeks. Five months later, they experienced a similar episode. This time the Ig therapy was only weakly helpful, and they as treated with therapeutic plasma exchanges every two weeks. They have recently been experiencing significant pains in their extremities and HEPES was started orally both for pain control and possible reinforcement of any myelinating defects, as our medical colleagues in the Netherlands have had significant success in reversing the demyelination process.

[5] = tested on: Benzodiazepine Withdrawal Symptoms; test: Clinical case, benzodiazepine withdrawal symptoms (Example 8); assay type: in vivo, human
Excerpt: patient five is a person, who was initially placed on benzodiazepine medication for panic attacks which presented. They have been on various forms of medications constituting this group for more than three decades. The dilemma which exists is that often the original condition for which the diazepines are prescribed are considered to be psychiatric in nature. When pain and neurological symptoms appear associated with withdrawal, it is often misdiagnosed with additional medications given which compounds the problem. These medications are recommended for short term treatment (4-6 weeks) only, but as with this patient, usage extends over years. One of the major withdrawal symptoms include violent repetitive “tics” which are considerably worsened with emotional situations and other stressors. Abnormal ideation often takes the form of bizarre thoughts as the functioning of the superego is marked impaired. Thus, these patients do things which under normal conditions would never contemplate, much less act out. As a result of these factors, our patient lost their successful business, their houses, and their family comprised of their spouse and three beautiful daughters. They walk with a hopping motion associated with bizarre flailing movements of the shoulder and arms. On the internet are listings of more than 300 withdrawal symptoms. The present inventors were consulted on this patient to see if we could ameliorate their extreme pain problems. Their neurologic examination was truly strange. […] They were started on HEPES by the oral route. […] They will be closely monitored as to their condition with additional treatment.

Cerebral Palsy = test: Clinical case, cerebral palsy patient (Example 2); assay type: in vivo, human; settings: oral 5,000 mg daily
Excerpt: patient five is a child of extraction, whose birthing was extremely difficult, and very probably associated with some degree of neonatal asphyxia, although this was not seriously reflected in the Apgar Score. The person has had superb medical care all their life long with loving and supportive parents able to provide recommended therapies.
Despite the abundance of treatment programs, it required nearly five years for […] to walk slowly in an unassisted manner. Amazingly, their speech pattern and intellectual capabilities were remarkably functional. A major problem was their significant dysfunction with motor skills in their hands. M.S. was given an oral dosage of HEPES of 5,000 mg daily (2 tsps with breakfast, 1 tsp mid-afternoon, and 2 tsps at bedtime). […] After 8 months of therapy, their walking and manual skills have improved to 85% of normal. They became devoted to spending several hours daily on the computer and the amount of knowledge they have acquired and retained is, indeed, phenomenal. The change in this young person has been outstanding and truly gratifying to their parents, their siblings, and especially their physicians.

[6] = tested on: Post Chemotherapy Cognitive Impairment (PCCI); test: Clinical case, post chemotherapy cognitive impairment (Example 3); assay type: in vivo, human; settings: PCCI patient, oral 5,000 mg daily in divided doses, after a month
Excerpt: patient two is a person who, prior to their diagnosis of breast cancer, has been in charge of the family business involving a host of necessary transactions, including maintenance of financial records and tax liabilities. Post chemotherapy they had profound difficulty remembering what day it was, what time it was, had they taken their morning bath, what to cook for any meal, forgetfulness as to daily chores, transporting their children to school-sponsored events, suddenly breaking telephone conversations with their concerned parent without any recall of the action. The major deficit business-wise was the inability to perform simple mathematical calculations. […] They thought they “was going bonkers!” Their parent inquired as to what could be done to alleviate the rapidly deteriorating family problems. A trial on HEPES was recommended as the symptoms were, at least in part, related to demyelination. They were started on oral HEPES, 5,000 mg daily in divided doses. […] They continue to show improvement in a gratifying manner.

[7] = Example 5 patient, 6,000 mg daily, continued treatment
[8] = continued daily product at 75 mg/kg

O=S(=O)(O)CCN1CCN(CCO)CC1 [HEPES, N-2-hydroxyethylpiperazine-N′-2-ethanesulfonic acid]
frequency of athetotic movements ([1]; 70-75 mg/kg level achieved, end of the first week, 1,300-1,500 per day before): 10-15 per day
frequency of athetotic movements ([1]; end of the second week): 2-3 movements per day
involuntary athetoid movements ([1]; oral medication at the same daily dosage, during the next three weeks, triggered by emotional or stressful circumstances): infrequent involuntary athetoid movements
tics after product withdrawn ([1]; product decreased gradually, no product being given): tic-free
opiate side-effects (Cancer of the Pancreas; HEPES administration with reduced opiate narcotic analgesia): elimination of opiate side-effects
opiate analgesic dosage giving good pain control (Cancer of the Pancreas; daily intravenous HEPES, narcotic medication slowly reduced over three months): about 25 % of the maximum dosage of the opiate analgesics
pain (Cancer of the Pancreas; daily intravenous infusion added to maximum opiate analgesic medication, after 5 days): completely controlled
anti-tumor effect (Cancer of the Pancreas; pancreatic cancer with wide-spread metastases, several additional months of quality living): a significant anti-tumor effect
motor function and exacerbations on continued medication (Multiple Sclerosis; continued on the oral medication): maintained their motor function as well as being free of new exacerbations
ability to write (Multiple Sclerosis; oral HEPES 5,000 mg daily, after only three days of treatment): regained the ability to write cursively and sign their name in a legible fashion
minimal effective daily dosage ([2]; administered on a body weight basis): 70 to 75 mg/kg
side-effects ([2]; general statement on the HEPES product): no side-effects
side-effects ([2]; oral and parenteral routes): without any significant side-effects
cytotoxicity compared with other buffers [3]: least cytotoxicity of all the known buffers
muscular fatigue, stiffness, and tics (Parkinson's Disease; Example 4 patient, 5,000 mg daily in divided doses, within a three-week period): all disappeared
patient-reported overall condition (Parkinson's Disease; Example 4 patient, 5,000 mg daily, after another couple of weeks): felt like they were before the diagnosis was made
daily dosage of levodopa needed (Parkinson's Disease; Example 5 patient, 6,000 mg HEPES daily, over time, reduced from the prescribed 6 per day, bromocriptine added): 2 per day
swallowing difficulties and tongue biting (Parkinson's Disease; Example 5 patient, 6,000 mg daily in divided doses, within three days): obviated their swallowing difficulties and abrogated their tongue biting
energy level (Parkinson's Disease; [7]): improved significantly
facial mask (Parkinson's Disease; [7]): completely disappeared
pain in extremities [4]: completely controlled
weakness in lower extremities [4]: almost completely resolved
athetoid movements [5, 8]: significant reduction in their athetoid movements
gait [5, 8]: improved gait
ideation [5, 8]: more cogent ideation
pain (jaws and teeth, shoulder joints and muscles, precordial chest, temples) [5, 8]: significant relief of their pain
dorsiflexion of left foot on neurologic examination ([5]; oral route, after four days on the product): normal dorsiflexion of their left foot
walking and manual skills (Cerebral Palsy; after 8 months of therapy): 85 % of normal
movement and control of hands and fingers (Cerebral Palsy; after three weeks): improved to the point where they could selectively (upon oral command) depress the correct key on the computer
walking pattern (Cerebral Palsy; after three weeks): considerable improvement with significant reduction in ataxic characteristics
brain fog ("cloud") [6]: the “cloud” was gone
